This note sets out measurements from publication PMC6095626, “Screening of the Pathogen Box for inhibitors with dual efficacy against Giardia lamblia and Cryptosporidium parvum” (PLoS Neglected Tropical Diseases, 2018).

pEC50: −log10 of the molar value.

Test [1] has as its system G. lamblia trophozoites (luciferase expressing, WBC6). As to the kind of experiment: microbe, parasite or virus in culture. The test is classed as cell-based, Giardia lamblia. To be noted: for Giardia (16 uM) Mean % inhibition: initial Pathogen Box screen, single concentration 16 µM, inhibition compared to DMSO wells. The method, boiled down:
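Incubation ran 24 h at 37 °C under anaerobic conditions, with compound added in equal volume to trophozoites (WBC6, luciferase-expressing, 250,000 cells/mL). Bioluminescence was the read-out, cross-checked by MOXI Z counts on a duplicate plate; metronidazole served as control (1:2 dilutions from 40 μM).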

Test [2] concerns C. parvum (UGA1 Nluc expressing strain in HCT-8 cells). As to the kind of experiment: microbe, parasite or virus in culture. The test is classed as cell-based, Cryptosporidium parvum. Conditions: for Crypto (10 uM) Mean % inhibition: initial Pathogen Box screen, single concentration 10 µM, inhibition compared to DMSO wells; for C. parvum cell growth inhibition in the initial screen: 10 μM; for C. parvum cell growth inhibition in the initial screen / pEC50: 48 hours; for pEC50: Nluc C. parvum in HCT-8 cells, read-out: C. parvum EC50. The gist of the method:
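Parasite growth quantified by NanoLuc luminescence from lysed infected HCT-8 cells, with EC50 fitted from dose curves. Compounds, single-dose 10 μM or serially diluted, were added to confluent 48 h monolayers before infection with bleached UGA1 Nluc oocysts.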

As to `CS(=O)(=O)c1cccc(-c2cnc3[nH]cc(-c4ccc(CCC(=O)O)cc4)c3c2)c1` [MMV026020], the “Giardia (16 uM) Mean % inhibition” value in test [1] was 19%. In addition, the “Crypto (10 uM) Mean % inhibition” value in test [2] is on record as “X* (Mean or standard deviation are negative but not significantly different from the control to be a growth promoter)”.
For `Nc1nccc2ccc(Oc3ccncc3)cc12` [MMV026313], in that order: “X* (Mean or standard deviation are negative but not significantly different from the control to be a growth promoter)” and “X* (Mean or standard deviation are negative but not significantly different from the control to be a growth promoter)”.
For `CCn1ncc2c(NC3CCOCC3)c(CNC(=O)c3ccnn3C)c(C)nc21` [MMV026356], in that order: 68% and 31%.
For `OCc1ccc(-c2cncc(Nc3cccc(Cl)c3)c2)cc1` [MMV026468] the same measures were 39% and “X* (Mean or standard deviation are negative but not significantly different from the control to be a growth promoter)”.
With `O=C(NCCc1ccccc1)c1cc(-c2cccnc2)cnc1NCC1CC1` [MMV026490], the “Giardia (16 uM) Mean % inhibition” value in test [1] was found to be 12%. The “Crypto (10 uM) Mean % inhibition” value in test [2] was “X* (Mean or standard deviation are negative but not significantly different from the control to be a growth promoter)”.
As for `CC(C)(C)CN1C(=O)C(c2ccccc2)(c2ccccc2)N=C1N` [MMV026550], the “Giardia (16 uM) Mean % inhibition” value in test [1] was 35%. Also, the “Crypto (10 uM) Mean % inhibition” value in test [2] is “X* (Mean or standard deviation are negative but not significantly different from the control to be a growth promoter)”.
For `CC(C)(CN)c1nc(-c2ccc(Cl)c(O)c2)c(-c2ccnc(N)n2)[nH]1` [MMV030734], in that order: 35% and “X* (Mean or standard deviation are negative but not significantly different from the control to be a growth promoter)”.
In the case of `CNC(=O)C1Cc2c([nH]c3cc(Cl)ccc23)C2(CCN(CCc3ccccc3)CC2)N1` (stereo not drawn) [MMV031011], the “Giardia (16 uM) Mean % inhibition” value in test [1] amounted to 81%. The “Crypto (10 uM) Mean % inhibition” value in test [2] is reported as 72%.
For `FC(F)(F)c1cccc(-c2nc3c(NCc4ccncc4)nccc3[nH]2)c1` [MMV032967], in that order: 26% and 27%.
On to `O=C1COCc2ccc(Br)cc2N1Cc1ccc(C(F)(F)F)cc1` [MMV032995], for which the “Giardia (16 uM) Mean % inhibition” value in test [1] was 38%. For the same compound, the “Crypto (10 uM) Mean % inhibition” value in test [2] amounted to 41%.
Take `c1ccc(Oc2ccc(-c3cc(N4CCOCC4)n[nH]3)cc2)cc1` [MMV045105]: the “Giardia (16 uM) Mean % inhibition” value in test [1] is 16%. For the same compound, in test [2], the “Crypto (10 uM) Mean % inhibition” value is given as 19%.
For `COc1cc(C(F)(F)F)nc2ccc(C)c(N)c12` [MMV047015], in that order: 65% and 1.83%.
`N#Cc1ccc(-c2ccc(OCC(N)=O)cc2)cc1` [MMV053220]: in test [1], the “Giardia (16 uM) Mean % inhibition” value worked out at 74%. The “Crypto (10 uM) Mean % inhibition” value in test [2] was 52%.
On to `CC(=O)N1CCc2cc3nc(C)cc(C)c3cc21` [MMV054312], for which the “Giardia (16 uM) Mean % inhibition” value in test [1] was 45%. In addition, the “Crypto (10 uM) Mean % inhibition” value in test [2] came to 59%.
As to `Cc1cc(C)nc(-n2nc(C)cc2Nc2ccccc2)n1` [MMV062221], the “Giardia (16 uM) Mean % inhibition” value in test [1] is on record as 35%. Moreover, the “Crypto (10 uM) Mean % inhibition” value in test [2] was found to be 50%.
In the case of `Cc1nn(Cc2ccccc2)c(Cl)c1C(=O)NC1CCCCCC1` [MMV063404], in test [1], the “Giardia (16 uM) Mean % inhibition” value worked out at 55%. Further, in test [2], the “Crypto (10 uM) Mean % inhibition” value came to 75%.
Take `FC(F)(F)c1nnc2ccc(Cl)nn12` [MMV069458]: in test [1], the “Giardia (16 uM) Mean % inhibition” value is “X* (Mean or standard deviation are negative but not significantly different from the control to be a growth promoter)”. For the same compound, the “Crypto (10 uM) Mean % inhibition” value in test [2] worked out at 65%.
For `O=C1N(Cc2cc3ccccc3s2)CC2CN(Cc3ccccc3)CCN12` (stereo not drawn) [MMV084603] the same measures were 62% and 43%.
For `O=C(Nc1cnc2ccccc2c1)c1cccc(-n2cnnn2)c1` [MMV084864], in that order: 63% and 34%.
For `COc1cncc(-c2cncc(N3CCN(c4ccncc4)CC3)n2)c1` [MMV085071] the same measures were 19% and 47%.
Regarding `O=C(C(Cc1c[nH]c2ccccc12)NS(=O)(=O)c1ccc(Cl)cc1)N1CCCCC1` (stereo not drawn) [MMV085210], the “Giardia (16 uM) Mean % inhibition” value in test [1] was “X* (Mean or standard deviation are negative but not significantly different from the control to be a growth promoter)”. Besides, the “Crypto (10 uM) Mean % inhibition” value in test [2] is “X* (Mean or standard deviation are negative but not significantly different from the control to be a growth promoter)”.
As to `CCCNC(=O)N1CCC2(CC1)CC(=O)c1cc(C)ccc1O2` [MMV085230], in test [1], the “Giardia (16 uM) Mean % inhibition” value is recorded as 63%. In addition, the “Crypto (10 uM) Mean % inhibition” value in test [2] is on record as 62%.
For the compound `N#Cc1ccc(-c2cnc(N)c(-c3ccc(C(N)=O)cc3)n2)cc1` [MMV085499], the “Giardia (16 uM) Mean % inhibition” value in test [1] is recorded as 61%. In test [2], the “C. parvum cell growth inhibition in the initial screen” value is listed as no less than 95%; the pEC50 (commonly the negative decadic logarithm of the EC50, by convention in mol/L) was 5.71; the “Crypto (10 uM) Mean % inhibition” value came to 95%.
In the case of `CCOC(=O)NC(=O)c1ccsc1NC(=O)c1nc2ccccc2s1` [MMV090930], the “Giardia (16 uM) Mean % inhibition” value in test [1] was found to be 18%. For the same compound, the “Crypto (10 uM) Mean % inhibition” value in test [2] is recorded as 59%.
For `O=C(Nc1nnc(-c2ccc(Cl)cc2)o1)c1cccc(C(F)(F)F)c1` [MMV102872], in test [1], the “Giardia (16 uM) Mean % inhibition” value was 35%. Besides, in test [2], the “C. parvum cell growth inhibition in the initial screen” value is on record as no less than 95%, the negative-log EC50 (pEC50) was 6.85 and the “Crypto (10 uM) Mean % inhibition” value came out at 95%.
As for `CCC(C)NC(=O)c1ccc(NC(=O)C2(c3ccccc3)CCCC2)cc1` (stereo not drawn) [MMV146306], in test [1], the “Giardia (16 uM) Mean % inhibition” value is “X* (Mean or standard deviation are negative but not significantly different from the control to be a growth promoter)”. The “Crypto (10 uM) Mean % inhibition” value in test [2] came to 37%.
Regarding `CCOC(=O)c1c(NC(=O)c2c(F)c(F)c(F)c(F)c2F)sc(C(N)=O)c1C` [MMV153413], the “G. lamblia inhibition of parasite growth in the initial screen” value in test [1] (16 μM, 24 hours) is recorded as no less than 95%. The “Giardia (16 uM) Mean % inhibition” value in test [1] is 97%. The “G. lamblia EC50” value in test [1] (luciferase expressing G. lamblia trophozoites, 24 hours, D-luciferin bioluminescence read-out) is given as “not potent”. For the same compound, in test [2], the “Crypto (10 uM) Mean % inhibition” value is “X* (Mean or standard deviation are negative but not significantly different from the control to be a growth promoter)”.
With `Cc1cc(Cl)ccc1NC(=O)CCc1ccc(S(=O)(=O)NCC(C)C)cc1` [MMV161996], the “Giardia (16 uM) Mean % inhibition” value in test [1] was “X* (Mean or standard deviation are negative but not significantly different from the control to be a growth promoter)”. Moreover, the “Crypto (10 uM) Mean % inhibition” value in test [2] is 41%.
For `CNC(=O)C1Cc2ccccc2N1C(=O)Cc1ccc(F)cc1` (stereo not drawn) [MMV188296] the same measures were 33% and 54%.
Consider `COc1ccc(C2(C(=O)Nc3ccc(Br)cc3)CCCC2)cc1` [MMV200748], for which the “Giardia (16 uM) Mean % inhibition” value in test [1] stood at 29%. The “Crypto (10 uM) Mean % inhibition” value in test [2] is given as “X* (Mean or standard deviation are negative but not significantly different from the control to be a growth promoter)”.
